This note sets out measurements from PubChem BioAssay AID743368.

The assay deals with Acetylcholine receptor subunit alpha (Mus musculus) (UniProt P04756). Put plainly: muscle nAChR inhibitors, cell-based, Mus musculus, Xenopus oocytes (AID 743368). Conditions: two-electrode voltage clamp, ACh-evoked current.

Structures are written as SMILES.

Sequence of Acetylcholine receptor subunit alpha (Mus musculus) (P04756 whole entry, looked up): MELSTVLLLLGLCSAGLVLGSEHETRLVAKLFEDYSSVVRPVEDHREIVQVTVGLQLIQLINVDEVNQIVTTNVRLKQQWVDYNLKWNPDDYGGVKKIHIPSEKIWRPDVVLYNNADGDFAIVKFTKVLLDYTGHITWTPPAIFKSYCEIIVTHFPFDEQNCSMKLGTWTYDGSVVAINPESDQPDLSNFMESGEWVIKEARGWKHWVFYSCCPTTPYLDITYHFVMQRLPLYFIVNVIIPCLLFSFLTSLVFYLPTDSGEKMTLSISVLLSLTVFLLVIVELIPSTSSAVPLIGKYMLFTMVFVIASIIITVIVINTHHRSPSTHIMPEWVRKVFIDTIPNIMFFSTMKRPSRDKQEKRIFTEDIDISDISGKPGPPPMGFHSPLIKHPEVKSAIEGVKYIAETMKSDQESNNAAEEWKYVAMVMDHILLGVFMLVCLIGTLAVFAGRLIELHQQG

`CC/C=C/[C@@H]1CC[C@]2(C[C@H]3CC[C@H]4[C@@H](C(=O)OC(CC)CCCCCCCCCCCCC[C@@H]5O[C@](O)(CCN)[C@H](O)N(CCCN)C5=O)[C@@]5(CCC[C@H](C)O5)NC(=[N+]34)N2)O1` (stereo partly drawn): the IC50 was 4.1 µM.

Regarding `COc1cc(CCN)c2c(c1OC)SSSSS2`, the IC50 is 8.7 µM. Next, `COn1c(Br)c2c3c(cccc31)[C@H]1C[C@@H](C)CN(C)[C@@H]1C2`: 3.7 µM.

The IC50 is the concentration at which inhibition is half-maximal.
